Reference: ChEMBL document CHEMBL4152348, “Discovery of a Potent and Orally Bioavailable Cyclophilin Inhibitor Derived from the Sanglifehrin Macrocycle” (J Med Chem, 2018)

Columns and labels:
[1] = Half life in human plasma at 2 uM up to 4 hrs by LC/MS/MS analysis; format: ADME, cell-free
[2] = Oral bioavailability in Sprague-Dawley rat at 10 mg/kg by HPLC/MS analysis; format: ADME, organism-based; settings: in vivo
[3] = Apparent permeability across basolateral to apical side in human Caco2 cells measured at 60 to 120 mins by LC/MS/MS analysis; format: ADME, cell-based; settings: for Papp B→A: Caco-2, read-out: permeability; for permeability: Caco-2
[4] = Clearance in Sprague-Dawley rat at 10 mg/kg, iv or 10 mg/kg, po by HPLC/MS analysis; format: ADME, organism-based; settings: in vivo
[5] = Volume of distribution at steady state in Beagle dog at 1 mg/kg, iv or 5 mg/kg, po by HPLC/MS analysis; format: ADME, organism-based, Canis lupus familiaris; settings: in vivo, read-out: Vdss
[6] = Oral bioavailability in Beagle dog at 5 mg/kg by HPLC/MS analysis; format: ADME, organism-based, Canis lupus familiaris; settings: in vivo
[7] = Volume of distribution at steady state in Sprague-Dawley rat at 10 mg/kg, iv or 10 mg/kg, po by HPLC/MS analysis; format: ADME, organism-based; settings: in vivo, read-out: Vdss
[8] = Half life in dog plasma at 2 uM up to 4 hrs by LC/MS/MS analysis; format: ADME, cell-free, Canis lupus familiaris
[9] = Apparent permeability across apical to basolateral side in human Caco2 cells measured at 60 to 120 mins by LC/MS/MS analysis; format: ADME, cell-based; settings: for Papp A→B: Caco-2, read-out: permeability; for permeability: Caco-2
[10] = Lipophilicity, log D of the compound at pH 7.4 after 30 mins by HPLC/UV analysis; format: physicochemical; settings: buffer
[11] = Terminal half life in Beagle dog at 1 mg/kg, iv or 5 mg/kg, po by HPLC/MS analysis; format: ADME, organism-based, Canis lupus familiaris; settings: in vivo, read-out: beta t1/2 (converted)
[12] = Terminal half life in Sprague-Dawley rat at 10 mg/kg, iv or 10 mg/kg, po by HPLC/MS analysis; format: ADME, organism-based; settings: in vivo, read-out: beta t1/2 (converted)
[13] = Half life in rat plasma at 2 uM up to 4 hrs by LC/MS/MS analysis; format: ADME, cell-free
[14] = Clearance in Beagle dog at 1 mg/kg, iv or 5 mg/kg, po by HPLC/MS analysis; format: ADME, organism-based, Canis lupus familiaris; settings: in vivo
[15] = Terminal half life in Sprague-Dawley rat at 1 mg/kg, iv or 5 mg/kg, po by HPLC/MS analysis; format: ADME, organism-based; settings: in vivo, read-out: beta t1/2 (converted)
[16] = Oral bioavailability in Sprague-Dawley rat at 5 mg/kg by HPLC/MS analysis; format: ADME, organism-based; settings: in vivo
[17] = Clearance in Sprague-Dawley rat at 1 mg/kg, iv or 5 mg/kg, po by HPLC/MS analysis; format: ADME, organism-based; settings: in vivo
[18] = Volume of distribution at steady state in Sprague-Dawley rat at 1 mg/kg, iv or 5 mg/kg, po by HPLC/MS analysis; format: ADME, organism-based; settings: in vivo, read-out: Vdss
[19] = Aqueous solubility of the compound at pH 7.2; format: physicochemical

CC(C)[C@@H]1OC(=O)C2(/C=C/c3ccc4ccc(nc4c3)[C@@H](C)NC(=O)[C@@H]3CCCN(N3)C(=O)[C@H](C)NC1=O)COCOC2
half-life at 2 µM [1]: > 1500 min | bioavailability [2]: 100% | Papp B→A [3]: 13 ×10⁻⁶ cm/s | clearance [4]: 7 mL/min/kg | Vd [5]: 2.3 L/kg | bioavailability [6]: 55% | Vd [7]: 12 L/kg | half-life at 2 µM [8]: > 1500 min | Papp A→B [9]: 1.5 ×10⁻⁶ cm/s | logD at 0.5 h [10]: 2.2 | half-life [11]: 1500 min | half-life [12]: 1440 min | half-life at 2 µM [13]: > 1500 min | clearance [14]: 1.33 mL/min/kg

CC(C)[C@@H]1OC(=O)C2(/C=C/c3ccc4ccc(nc4c3)[C@@H](C)NC(=O)[C@@H]3CCCN(N3)C(=O)[C@H](C)NC1=O)COCCOC2
Papp B→A [3]: 10 ×10⁻⁶ cm/s | Papp A→B [9]: 0.72 ×10⁻⁶ cm/s | logD at 0.5 h [10]: 2.1

CC(C)[C@@H]1NC(=O)C/C=C/c2ccc3ccc(cc3c2)[C@@H](C)OC(=O)[C@@H]2CCCN(N2)C(=O)[C@H](C)NC1=O
half-life at 2 µM [1]: > 1500 min | Papp B→A [3]: 38 ×10⁻⁶ cm/s | half-life at 2 µM [8]: > 1500 min | Papp A→B [9]: 6.2 ×10⁻⁶ cm/s | logD at 0.5 h [10]: 2.5

CC(C)[C@@H]1NC(=O)CC/C=C/c2cc3cc(ccc3cn2)[C@@H](C)OC(=O)[C@@H]2CCCN(N2)C(=O)[C@H](C)NC1=O
half-life at 2 µM [1]: > 1500 min | Papp B→A [3]: 25 ×10⁻⁶ cm/s | half-life at 2 µM [8]: > 1500 min | Papp A→B [9]: 0.33 ×10⁻⁶ cm/s | logD at 0.5 h [10]: 1.6 | half-life at 2 µM [13]: 8 min

CC(C)[C@@H]1NC(=O)C/C=C/c2cc3cc(ccc3cn2)[C@@H](C)OC(=O)[C@@H]2CCCN(N2)C(=O)[C@H](C)NC1=O
half-life at 2 µM [1]: 559 min | Papp B→A [3]: 13 ×10⁻⁶ cm/s | bioavailability [6]: 8% | half-life at 2 µM [8]: 417 min | Papp A→B [9]: 0.32 ×10⁻⁶ cm/s | logD at 0.5 h [10]: 1.1 | half-life at 2 µM [13]: 8 min

CC(C)[C@@H]1OC(=O)C2(/C=C/c3ccc4ccc(nc4c3)[C@@H](C)NC(=O)[C@@H]3CCCN(N3)C(=O)[C@H](C)NC1=O)CCC(O)CC2 (stereo in doubt; 48)
permeability [3]: 7.1 ×10⁻⁶ cm/s | permeability [9]: 0.9 ×10⁻⁶ cm/s

CC(C)[C@@H]1OC(=O)C(C)(C)/C=C/c2ccc3ccc(nc3c2)[C@@H](C)NC(=O)[C@@H]2CCCN(N2)C(=O)[C@H](C)NC1=O
half-life [15]: 234 min | bioavailability [16]: 90% | half-life at 2 µM [1]: > 1500 min | clearance [17]: 10.8 mL/min/kg | permeability [3]: 47 ×10⁻⁶ cm/s | Vd [5]: 3.9 L/kg | bioavailability [6]: 100% | half-life at 2 µM [8]: > 1500 min | permeability [9]: 17 ×10⁻⁶ cm/s | Vd [18]: 2.5 L/kg | logD at 0.5 h [10]: 3.2 | half-life [11]: 600 min | half-life at 2 µM [13]: 412 min | clearance [14]: 6 mL/min/kg

CC(C)[C@@H]1NC(=O)C(C)(C)/C=C/c2ccc3ccc(nc3c2)[C@@H](C)OC(=O)[C@@H]2CCCN(N2)C(=O)[C@H](C)NC1=O
half-life at 2 µM [1]: 1020 min | Papp B→A [3]: 21 ×10⁻⁶ cm/s | half-life at 2 µM [8]: > 1500 min | Papp A→B [9]: 2 ×10⁻⁶ cm/s | solubility [19]: < 6 µg/mL | logD at 0.5 h [10]: 2.7 | half-life at 2 µM [13]: 15 min

CC(C)[C@@H]1OC(=O)C2(/C=C/c3ccc4ccc(nc4c3)[C@@H](C)NC(=O)[C@@H]3CCCN(N3)C(=O)[C@H](C)NC1=O)CCOCC2
Papp B→A [3]: 19 ×10⁻⁶ cm/s | Papp A→B [9]: 3.2 ×10⁻⁶ cm/s | logD at 0.5 h [10]: 2.4

CC(C)[C@@H]1NC(=O)C(C)(C)/C=C/c2cc3cc(ccc3cn2)[C@@H](C)OC(=O)[C@@H]2CCCN(N2)C(=O)[C@H](C)NC1=O
half-life at 2 µM [1]: > 1500 min | Papp B→A [3]: 34 ×10⁻⁶ cm/s | half-life at 2 µM [8]: > 1500 min | Papp A→B [9]: 2.3 ×10⁻⁶ cm/s | solubility [19]: < 6 µg/mL | logD at 0.5 h [10]: 2.1

CO[C@H]1C(=O)N[C@@H](C(C)C)C(=O)N[C@@H](C)C(=O)N2CCC[C@H](N2)C(=O)O[C@H](C)c2cccc(c2)/C=C/CC[C@H]1C
half-life at 2 µM [1]: > 1500 min | Papp B→A [3]: 31 ×10⁻⁶ cm/s | half-life at 2 µM [8]: 600 min | Papp A→B [9]: 12 ×10⁻⁶ cm/s | logD at 0.5 h [10]: 2.9 | half-life at 2 µM [13]: 5 min

CC(C)[C@@H]1OC(=O)C(C)(C)/C=C/c2cc3cc(ccc3cn2)[C@@H](C)NC(=O)[C@@H]2CCCN(N2)C(=O)[C@H](C)NC1=O
half-life at 2 µM [1]: > 1500 min | Papp B→A [3]: 7.9 ×10⁻⁶ cm/s | half-life at 2 µM [8]: 729 min | Papp A→B [9]: 0.1 ×10⁻⁶ cm/s | logD at 0.5 h [10]: 2 | half-life at 2 µM [13]: 564 min

CC(C)[C@@H]1OC(=O)C2(/C=C/c3ccc4ccc(nc4c3)[C@@H](C)NC(=O)[C@@H]3CCCN(N3)C(=O)[C@H](C)NC1=O)CCS(=O)(=O)CC2
Papp B→A [3]: 12 ×10⁻⁶ cm/s | Papp A→B [9]: 0.48 ×10⁻⁶ cm/s | logD at 0.5 h [10]: 1.9

CO[C@H]1CC[C@@]2(/C=C/c3ccc4ccc(nc4c3)[C@@H](C)NC(=O)[C@@H]3CCCN(N3)C(=O)[C@H](C)NC(=O)[C@H](C(C)C)OC2=O)CC1
Papp B→A [3]: 33 ×10⁻⁶ cm/s | Papp A→B [9]: 13 ×10⁻⁶ cm/s | logD at 0.5 h [10]: 3.1

CO[C@@H]1/C=C/c2cc3cc(ccc3cn2)[C@@H](C)OC(=O)[C@@H]2CCCN(N2)C(=O)[C@H](C)NC(=O)[C@H](C(C)C)NC(=O)[C@@H]1C
half-life at 2 µM [1]: 750 min | Papp B→A [3]: 37 ×10⁻⁶ cm/s | half-life at 2 µM [8]: 1050 min | Papp A→B [9]: 4.4 ×10⁻⁶ cm/s | logD at 0.5 h [10]: 2.1 | half-life at 2 µM [13]: 5 min

CC(C)[C@@H]1OC(=O)C(CO)(CO)/C=C/c2ccc3ccc(nc3c2)[C@@H](C)NC(=O)[C@@H]2CCCN(N2)C(=O)[C@H](C)NC1=O
Papp B→A [3]: 0.59 ×10⁻⁶ cm/s | Papp A→B [9]: 0.08 ×10⁻⁶ cm/s | logD at 0.5 h [10]: 1

CC(C)[C@@H]1NC(=O)C/C=C/c2ccc3ccc(nc3c2)[C@@H](C)OC(=O)[C@@H]2CCCN(N2)C(=O)[C@H](C)NC1=O
half-life at 2 µM [1]: 532 min | Papp B→A [3]: 3.5 ×10⁻⁶ cm/s | half-life at 2 µM [8]: > 1500 min | Papp A→B [9]: 1.2 ×10⁻⁶ cm/s | logD at 0.5 h [10]: 2.1

CC(C)[C@@H]1OC(=O)C2(/C=C/c3ccc4ccc(nc4c3)[C@@H](C)NC(=O)[C@@H]3CCCN(N3)C(=O)[C@H](C)NC1=O)CCC(O)CC2 (stereo in doubt; 47)
Papp B→A [3]: 9.2 ×10⁻⁶ cm/s | Papp A→B [9]: 0.61 ×10⁻⁶ cm/s | logD at 0.5 h [10]: 1.9
